From ChEMBL document CHEMBL1135843, “A library construction of 2,5-disubstituted pyrrole compounds by using solid/solution-phase syntheses” (Bioorg Med Chem Lett, 2002)

What was measured:
Type in all cases: functional
[1] = Inhibition of LPS-induced mouse B-lymphocyte proliferation. The result is expressed as relative IC50 i.e., IC50 of compound/all-trans retinoic acid IC50.
[2] = Inhibition of LPS-induced mouse B-lymphocyte proliferation in relation to IC50 of all-trans retinoic acid.
[3] = Compound was evaluated for its inhibition of LPS-induced mouse B-lymphocyte proliferation
[4] = Compound was evaluated for its inhibition of LPS-induced mouse B-lymphocyte proliferation. The result is expressed as relative IC50 i.e., IC50 of compound / All Trans Retinoic Acid IC50

Compound | Relative IC50 [1] | Relative IC50 [2] | also measured
CCCc1cccc2cc(-c3ccc(-c4ccc(C(=O)O)s4)[nH]3)sc12 | 600 |  | 
CCc1ccc(OC)c2cc(-c3ccc(-c4ccc(C(=O)O)o4)[nH]3)oc12 |  | >1000 | 
Cc1ccc(C)c2oc(-c3ccc(-c4ccc(C(=O)O)cc4Br)[nH]3)cc12 | 18 |  | 
O=C(O)c1ccc2cc(-c3ccc(-c4cc5c(Cl)ccc(Cl)c5s4)[nH]3)ccc2c1 |  | >1000 | 
Cc1cc(C)c2oc(-c3ccc(-c4ccc(C(=O)O)cc4)[nH]3)cc2c1C |  |  | IC50 [3]: 2.2 nM
O=C(O)c1ccc(-c2ccc(-c3cc4cc(Cl)ccc4o3)[nH]2)s1 |  | >1000 | 
Cc1ccc(C)c2oc(-c3ccc(-c4ccc(C(=O)O)cc4F)[nH]3)cc12 | 15 |  | 
Cc1ccc(C)c2oc(-c3ccc(-c4cccc(C(=O)O)c4)[nH]3)cc12 | 2100 |  | 
CCCc1ccc(OC)c2cc(-c3ccc(-c4ccc(C(=O)O)o4)[nH]3)oc12 |  | >1000 | 
Cc1cc(-c2ccc(-c3cc4cc(Cl)cc(Cl)c4o3)[nH]2)c(C)cc1C(=O)O |  | >1000 | 
COc1cc(C(=O)O)ccc1-c1ccc(-c2cc3c(Cl)ccc(Cl)c3o2)[nH]1 | 210 |  | 
O=C(O)c1ccc(-c2ccc(-c3cc4cc(Cl)ccc4o3)[nH]2)c2ccccc12 |  | >1000 | 
O=C(O)c1ccc(-c2ccc(-c3cc4c(Cl)ccc(Cl)c4s3)[nH]2)c2ccccc12 |  | >1000 | 
CCc1ccc(OC)c2cc(-c3ccc(-c4ccc(C(=O)O)s4)[nH]3)oc12 |  | >1000 | 
O=C(O)c1ccc(-c2ccc(-c3cc4c(Cl)ccc(Cl)c4o3)[nH]2)c(Cl)c1 | 240 |  | 
CCc1ccc(OC)c2cc(-c3ccc(-c4ccc(C(=O)O)c5ccccc45)[nH]3)oc12 |  | >1000 | 
Cc1ccc(Cl)c2sc(-c3ccc(-c4ccc(C(=O)O)c5ccccc45)[nH]3)cc12 |  | >1000 | 
Cc1ccc(Cl)c2oc(-c3ccc(-c4ccc5cc(C(=O)O)ccc5c4)[nH]3)cc12 |  | >1000 | 
CCCc1ccc(OC)c2cc(-c3ccc(-c4cc(C)c(C(=O)O)cc4C)[nH]3)oc12 |  | >1000 | 
O=C(O)c1ccc(-c2ccc(-c3cc4c(Cl)ccc(Cl)c4o3)[nH]2)c(Br)c1 | 45 |  | 

Compound | Relative IC50 [1] | Relative IC50 [2] | also measured
O=C(O)c1ccc(-c2ccc(-c3cc4ccc5ccccc5c4o3)[nH]2)c(Br)c1 | 1500 |  | 
CCCc1cccc2cc(-c3ccc(-c4ccc5cc(C(=O)O)ccc5c4)[nH]3)oc12 |  | >1000 | 
CCCc1ccc(OC)c2cc(-c3ccc(-c4ccc(C(=O)O)s4)[nH]3)oc12 |  | >1000 | 
Cc1ccc(C)c2oc(-c3ccc(-c4ccc(C(=O)O)c5ccccc45)[nH]3)cc12 |  | >1000 | 
Cc1ccc(C)c2oc(-c3ccc(-c4ccc(C(=O)O)s4)[nH]3)cc12 | 42 |  | 
CCc1ccc(OC)c2cc(-c3ccc(-c4cc(C)c(C(=O)O)cc4C)[nH]3)oc12 |  | >1000 | 
O=C(O)c1ccc(-c2ccc(-c3cc4c(Cl)ccc(Cl)c4o3)[nH]2)cc1 |  |  | Relative IC50 [4]: 1.3
Cc1ccc(C)c2oc(-c3ccc(-c4ccc(C(=O)O)o4)[nH]3)cc12 |  | >1000 | 
CCc1ccc(OC)c2cc(-c3ccc(-c4ccc(C(=O)O)cc4Br)[nH]3)oc12 | 140 |  | 
Cc1ccc(C)c2oc(-c3ccc(-c4ccc(C(=O)O)cc4)[nH]3)cc12 |  |  | Relative IC50 [4]: 0.76
Cc1cc(C)c2oc(-c3ccc(-c4ccc(C(=O)O)cc4Br)[nH]3)cc2c1C | 42 |  | 
Cc1ccc(Cl)c2sc(-c3ccc(-c4ccc(C(=O)O)s4)[nH]3)cc12 | 480 |  | 
O=C(O)c1ccc(-c2ccc(-c3cc4cc(Cl)ccc4o3)[nH]2)o1 |  | >1000 | 
Cc1ccc(Cl)c2oc(-c3ccc(-c4ccc(C(=O)O)cc4Br)[nH]3)cc12 | 16 |  | 
O=C(O)c1ccc(-c2ccc(-c3cc4cccc(Cl)c4o3)[nH]2)c(Cl)c1 | 300 |  | 
O=C(O)c1ccc(-c2ccc(-c3cc4c(Cl)ccc(Cl)c4o3)[nH]2)s1 | 62 |  | 
Cc1ccc(C)c2oc(-c3ccc(-c4ccc5cc(C(=O)O)ccc5c4)[nH]3)cc12 |  | >1000 | 
Cc1cc(C)c2oc(-c3ccc(-c4ccc(C(=O)O)s4)[nH]3)cc2c1C | 230 |  | 
Cc1cc(C)c2oc(-c3ccc(-c4ccc(C(=O)O)c5ccccc45)[nH]3)cc2c1C |  | >1000 | 
CCCc1cccc2cc(-c3ccc(-c4cc(C)c(C(=O)O)cc4C)[nH]3)oc12 |  | >1000 | 

Compound | Relative IC50 [1] | Relative IC50 [2] | also measured
O=C(O)c1cccc(-c2ccc(-c3cc4cccc(Cl)c4s3)[nH]2)c1 |  | >1000 | 
O=C(O)c1ccc(-c2ccc(-c3cc4cccc(Cl)c4o3)[nH]2)c(F)c1 | 95 |  | 
Cc1cc(-c2ccc(-c3cc4c(C)c(C)cc(C)c4o3)[nH]2)c(C)cc1C(=O)O |  | >1000 | 
COc1cc(C(=O)O)ccc1-c1ccc(-c2cc3cccc(Cl)c3o2)[nH]1 | 170 |  | 
CCCc1ccc(OC)c2cc(-c3ccc(-c4ccc(C(=O)O)c5ccccc45)[nH]3)oc12 |  | >1000 | 
CCCc1ccc(OC)c2cc(-c3ccc(-c4ccc5cc(C(=O)O)ccc5c4)[nH]3)oc12 |  | >1000 | 
CCc1ccc(OC)c2cc(-c3ccc(-c4ccc5cc(C(=O)O)ccc5c4)[nH]3)oc12 |  | >1000 | 
Cc1cc(C)c2oc(-c3ccc(-c4ccc5cc(C(=O)O)ccc5c4)[nH]3)cc2c1C |  | >1000 | 
O=C(O)c1ccc(-c2ccc(-c3cc4c(Cl)ccc(Cl)c4o3)[nH]2)c(F)c1 | 64 |  | 
CCCc1cccc2cc(-c3ccc(-c4ccc(C(=O)O)c5ccccc45)[nH]3)sc12 |  | >1000 | 
O=C(O)c1ccc(-c2ccc(-c3cc4cccc(Cl)c4o3)[nH]2)c(Br)c1 | 31 |  | 
Cc1ccc(C)c2oc(-c3ccc(-c4ccc(C(=O)O)cc4Cl)[nH]3)cc12 | 23 |  | 
CCCc1cc(OC)cc2cc(-c3ccc(-c4cc(C)c(C(=O)O)cc4C)[nH]3)oc12 |  | >1000 | 
Cc1cc(-c2ccc(-c3cc4cc(Cl)ccc4o3)[nH]2)c(C)cc1C(=O)O |  | >1000 | 
COc1cc(C(=O)O)ccc1-c1ccc(-c2cc3c(C)ccc(C)c3o2)[nH]1 | 47 |  | 
Cc1cc(-c2ccc(-c3cc4c(C)ccc(C)c4o3)[nH]2)c(C)cc1C(=O)O |  | >1000 | 
Cc1cc(C)c2oc(-c3ccc(-c4ccc(C(=O)O)o4)[nH]3)cc2c1C |  | >1000 | 
CC1=C(/C=C/C(C)=C/C=C/C(C)=C/C(=O)O)C(C)(C)CCC1 [TRETINOIN] | 1 |  | Relative IC50 [4]: 0.65
